Measured values published in patent EP3495372B1 (priority 2017, dated 2019).

Key:
[1] = target: T1, acetylcholinesterase (AChE) (Homo sapiens, UniProt P22303); assay: AChE activity in cellular model of Alzheimer's disease; format: cell-based; conditions: with 20 µM Aβ1-42, 24 h
T1 construct: endogenous in cells
Procedure: Determination of AChE activity: the activity of AChE within the cellular Alzheimer Disease's model was measured by the Acetylcholinesterase Assay Kit (Colorimetric) from Abcam^(R) (Cambridge, MA, USA) according to the manufacturer's recommended protocol.
AChE activity was evaluated in differentiated SH-SY5Y cells treated with BLA, LA, MEM (25 and 50 µM) or media alone for 24 h.

human neuron-like cells = assay: Apoptosis-Necrosis assay (Annexin V-FITC/PI flow cytometry); format: cell-based; conditions: concentration not given
Procedure: Apoptosis-Necrosis assay: the frequencies of viable, apoptotic and necrotic cells were detected with the Annexin V-FITC apoptosis detection Kit I (BD Pharmingen, USA). Briefly, 5 x 10^4 cells were collected by centrifugation and cells resuspended in 500 µL of 1X binding buffer. Then, 5 µL of Annexin V-FITC and 5 µl of propidium iodide (PI 50 µg/ml) were added to the cultures and incubated 5 min in the dark. After that, cells fixed with 4% paraformaldehyde in phosphate buffered saline at 4 °C for 30 min. Cells from each well were stained according to the manufacturer's instructions and analyzed using a flow cytometer (CyFlow Cube 6, Partec, Germany). A computer system was used for data acquisition and analysis. Four different populations of cells are detected with the Annexin V-FITC kit: viable cells that are annexin negative and PI negative and express no fluorescence, early apoptotic cells that are annexin positive and PI negative and that express green fluorescence, late apoptotic/necrotic cells that are annexin positive and PI positive and that express green and orange fluorescence, necrotic cells that are annexin negative and PI positive and that express orange fluorescence (Majstorovic I, Vucevic D, Pavlovic B, Vasilijic S, Colic M. An anti-DEC-205 monoclonal antibody stimulates binding of thymocytes to rat thymic dendritic cells and promotes apoptosis of thymocytes. Cent Eur J Immunol. 2014; 39:411-418) .
BLA was considered as more able to protect the human neuron-like cells from Aβ1-42-induced necrosis and late apoptosis than LA or MEM.

[2] = test system: differentiated SH-SY5Y human neuroblastoma cells; assay: MTT assay, neuroprotective effects against Aβ1-42 cytotoxicity; format: cell-based; conditions: 24 h, read-out: increase in the cell viability (MTT assay)
Procedure: Cell cultures and differentiation: SH-SY5Y cell line were growth in DMEM:F12 (1:1) media including 10% FBS and 1% penicillin/streptomycin at 37 °C and 5% CO2 until cells reach confluence. Then, cells harvested via using trypsin/EDTA solution and transferred to 48 well plates. For differentiation, media were changed to supplemented media with 10 µg/mL retinoic acid and incubated for 5 days. Finally, media were changed into serum free media supplementing with both 10 µM retinoic acid and 25 ng/mL BDNF. Differentiated cells were determined under invert microscope and the cells were used within 10 days (Encinas M, Iglesias M, Liu Y, Wang H, Muhaisen A, Ceña V, Gallego C, Comella JX. Sequential treatment of SH-SY5Y cells with retinoic acid and brain-derived neurotrophic factor gives rise to fully differentiated, neurotrophic factor-dependent, human neuron-like cells. J. Neurochem. 2002; 75:991-1003 e Cheung YT, Lau WKW, Yu MS, Lai CSW, Yeung SC, So KF, Chang RCC. Effects of all-trans-retinoic acid on human SH-SY5Y neuroblastoma as in vitro model in neurotoxicity research. Neurotoxicol. 2009; 30:127-135).
(§1) Control cells (n = 6) were cultured under normal conditions. 1% Triton X, ascorbic acid (10 µM) and hydrogen peroxide (H2O2, 25 µM) were used as positive controls for cell viability, TAC and TOS analysis, respectively.
The cultures without BLA, MEM, or LA were studied as negative control group. 1% Triton-X was added to the culture media to provide negative control group. MTT reduction and LDH release observed after 24 h of Aβ1-42-exposure at 20 µM.

[3] = test system: cultured human lymphocytes; assay: SCE assay (genotoxicity); format: cell-based
Procedure: (§2) All volunteers have signed informed consent.
SCE assay: to provide successive visualization of SCEs, 5-bromo-2-deoxyuridine was added at culture cells. Exactly 70 h and 30 min after beginning of the incubations, demecolcine ([…]) was added to the cultures. After hypotonic treatment (0.075 M KCl), followed by three repetitive cycles of fixation in methanol/acetic acid solution (3:1, v/v), centrifugation and re-suspension, the cell suspension was dropped onto chilled, grease-free microscopic slides, air-dried, aged for three days, and then differentially stained for the inspection of the SCE rate according to the fluorescence plus Giemsa (FPG) procedure. For each treatment condition, well-spread twenty-five second division metaphases containing 42-46 chromosomes per cell were scored and the values obtained were calculated as SCEs per cell.
The frequencies of sister chromatid exchanges (SCEs) with increasing BLA concentrations were investigated in cultured human lymphocytes.

[4] = test system: cultured human blood cells; assay: Nucleic acid oxidation, 8-hydroxy-2'-deoxyguanosine assay; format: cell-based
Description: as §2
Nucleic acid oxidation: 8-hydroxy-2'-deoxyguanosine assay kits (Cayman Chemical®) was used for determining 8- OH-dG levels in the cultures. It is a competitive assay that can be used for the quantification of 8-OHdG in homogenates and recognizes both free 8-OHdG and DNA-incorporated 8-OH-dG. This assay depends on the competition between 8-OH-dG and 8-OH-dGacetylcholinesterase (AChE) conjugate for a limited amount of 8-OH-dG monoclonal antibody (Abdel-Wahab BA, Metwally ME. Ginkgo biloba enhances the anticonvulsant and neuroprotective effects of sodium valproate against kainic acid-induced seizures in mice. J Pharmacol Toxicol. 2011; 6:679-690). All procedures were carried out in accordance with the provider's manual.
The levels of 8-OH-dG, a sensitive marker of oxidative DNA damage, were quantified about mitomycin (MMC) treatment. […] On the contrary, 8-OH-dG levels were not increased in the blood cells that were treated with BLA, MEM, and LA concentrations.

[5] = test system: differentiated SH-SY5Y cells; assay: Apoptosis detection by Hoechst 33258 staining; format: cell-based, human; conditions: 25 and 50 µM co-treatment, 20 µM Aβ1-42, 24 h
Procedure: Apoptosis detection by Hoechst 33258 staining: Hoechst 33258 staining was used to detect apoptotic nuclei. […] Then, cells fixed with 4% paraformaldehyde in phosphate buffered saline at 4 °C for 30 min. After washing cells with PBS, the nuclear DNAs were incubated with […] Hoechst 33258 fluorescent dye for 5 min at room temperature. Cells were observed and photographed under a fluorescence microscopy (Leica® DM IL LED).

[6] = test system: differentiated SH-SY5Y cells; assay: TAC and TOS analysis in cellular model of Alzheimer's disease; format: cell-based, human; conditions: co-treatment with Aβ1-42
Procedure: TAC and TOS analysis: the automated TAC and TOS assays were carried out by commercially available kits (Rel Assay^(R) Diagnostics, Gaziantep, Turkey) on samples from the cultures.
as §1
Figure 5 and 6 show the effects of BLA and MEM treatments on TAC and TOS levels in cellular model of Alzheimer's disease, respectively.

[7] = test system: differentiated SH-SY5Y human neuroblastoma cells; assay: LDH assay, neuroprotective effects against Aβ1-42 cytotoxicity; format: cell-based; conditions: with 20 µM Aβ1-42, 24 h
Procedure: Cell cultures and differentiation: SH-SY5Y cell line were growth in DMEM:F12 (1:1) media including 10% FBS and 1% penicillin/streptomycin at 37 °C and 5% CO2 until cells reach confluence. Then, cells harvested via using trypsin/EDTA solution and transferred to 48 well plates. For differentiation, media were changed to supplemented media with 10 µg/mL retinoic acid and incubated for 5 days. Finally, media were changed into serum free media supplementing with both 10 µM retinoic acid and 25 ng/mL BDNF.
(§3) Cytotechnol. 2015; 67:299-309.
as §1
The cultures without BLA, MEM, or LA were studied as negative control group. 1% Triton-X was added to the culture media to provide negative control group.

[8] = test system: SHSY-5Y human neuroblastoma cell line; assay: Antitumor activity, MTT and LDH assays; format: cell-based; conditions: dose-dependent
Procedure: as §3
Antitumor activity of BLA and MEM was tested on SHSY-5Y human neuroblastoma cell line using MTT and LDH assays. Cells were grown to near-confluency before treatment. Growth of the cell line was inhibited by both drug application in a dose-dependent manner.

[9] = cited from earlier work

T1 sequence (P22303 32-614): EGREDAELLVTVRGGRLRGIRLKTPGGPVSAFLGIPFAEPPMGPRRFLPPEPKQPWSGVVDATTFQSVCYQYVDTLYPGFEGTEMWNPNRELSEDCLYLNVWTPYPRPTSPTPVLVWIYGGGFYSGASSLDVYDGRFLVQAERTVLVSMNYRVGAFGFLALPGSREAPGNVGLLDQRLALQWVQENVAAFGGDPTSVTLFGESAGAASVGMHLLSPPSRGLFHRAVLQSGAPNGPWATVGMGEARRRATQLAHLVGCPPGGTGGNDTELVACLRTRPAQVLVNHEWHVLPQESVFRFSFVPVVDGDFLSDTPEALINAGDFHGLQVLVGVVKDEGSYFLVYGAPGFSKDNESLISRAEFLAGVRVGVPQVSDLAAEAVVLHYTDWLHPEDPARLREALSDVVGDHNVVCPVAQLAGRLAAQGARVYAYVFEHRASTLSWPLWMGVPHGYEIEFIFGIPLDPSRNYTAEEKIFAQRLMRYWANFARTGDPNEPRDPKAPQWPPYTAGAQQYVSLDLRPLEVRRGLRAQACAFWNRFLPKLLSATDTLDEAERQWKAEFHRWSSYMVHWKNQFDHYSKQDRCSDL

## CC12CC3CC(C)(C1)CC(N)(C3)C2 [MEM, memantine]
[1]; 25 µM
  reduced Aβ-induced AChE activity: 14.57%
[1]; 50 µM
  reduced Aβ-induced AChE activity: 19.47%
Human neuron-like cells
  decreased the necrotic cell percentage by Aβ1-42: 65.97%
[2]
  viability at 25 µM: 17.3%
  viability at 50 µM: 19.4%
  viability at 100 µM: 17.1%
[3]
  frequencies of sister chromatid exchanges (SCEs): not higher than the control group
[4]
  8-OH-dG levels: not increased
[5]
  nuclear integrity and apoptosis by Aβ1-42 (Hoechst 33258): protected nuclear integrity and inhibited apoptosis
[6]
  Aβ1-42-induced decreases of TAC and increases of TOS levels: modulated
[7]; 25 µM
  increase in the cell viability (inhibited LDH release): 56.81%
[7]; 50 µM
  increase in the cell viability (inhibited LDH release): 59.15%
[7]; 100 µM
  increase in the cell viability (inhibited LDH release): 57.28%
[8]
  antitumor effects (growth inhibition): moderate antitumor effects

## N[C@@H](Cc1ccc(B(O)O)cc1)C(=O)O [p-borophenyalanine]
[9]
  safe for humans at doses up to: up to 900 mg/kg

## CO[C@@]12[C@H](COC(N)=O)C3=C(C(=O)C(C)=C(N)C3=O)N1C[C@@H]1N[C@@H]12 [MMC, mitomycin]
[4]; 10^-7 M, 24 h, positive control
  8-OH-dG concentrations: significantly increased
